Data from PMC8376128 (CPT: Pharmacometrics & Systems Pharmacology, 2021).
Read-outs that look alike come from different tables or passages of the source.

Tests used:
NSCLC tumors [1] = conditions: cited from earlier work
NSCLC tumors [2] = conditions: cited from earlier work; remark: listed apart in the source
[3] = Human PK model for AMG 510 fitted to digitized published clinical PK data; type: in vivo; conditions: AMG 510 (human)
[4] = patients with NSCLC, single agent

| Structure (SMILES) | overall response rate (ORR) (NSCLC tumors [1]; [4]) | dose-limiting toxicities (NSCLC tumors [1]; patients, phase I) | ORR reported (NSCLC tumors [2]; AMG 510 at 960 mg, patients with NSCLC) [%] | overall response rate (ORR) (NSCLC tumors [2]; [4]) | dose-limiting toxicities (NSCLC tumors [2]; patients, phase I) | Fz (data), frequency in tumor size bin 0–0.3 (NSCLC tumors [2]; six weeks AMG 510) | Fz (data), frequency in tumor size bin 0.3–0.5 (NSCLC tumors [2]; six weeks AMG 510) | Fz (data), frequency in tumor size bin 0.5–0.7 (NSCLC tumors [2]; six weeks AMG 510) | Fz (data), frequency in tumor size bin 0.7–1 (NSCLC tumors [2]; six weeks AMG 510) | Fz (data), frequency in tumor size bin 1–1.2 (NSCLC tumors [2]; six weeks AMG 510) | N (data), number of patients in tumor size bin 0–0.3 (NSCLC tumors [2]; six weeks AMG 510) | N (data), number of patients in tumor size bin 0.3–0.5 (NSCLC tumors [2]; six weeks AMG 510) | N (data), number of patients in tumor size bin 0.5–0.7 (NSCLC tumors [2]; six weeks AMG 510) | N (data), number of patients in tumor size bin 0.7–1 (NSCLC tumors [2]; six weeks AMG 510) | N (data), number of patients in tumor size bin 1–1.2 (NSCLC tumors [2]; six weeks AMG 510) | ke [3] [day⁻¹] | V1 ([3]; assume 70 kg human) [L] | Vp ([3]; assume 70 kg human) [L] | ka ([3]; single dose 960 mg) [day⁻¹] |
| --- | --- | --- | --- | --- | --- | --- | --- | --- | --- | --- | --- | --- | --- | --- | --- | --- | --- | --- | --- |
| C=C(F)C(=O)N1CCN(c2nc(OC[C@@H]3CCCN3C)nc3c2CCN(c2cccc4cccc(Cl)c24)C3)C[C@@H]1CC#N [MRTX849, Adagrasib] | ~ 50% | no dose‐limiting toxicities |  |  |  |  |  |  |  |  |  |  |  |  |  |  |  |  |  |
| C=CC(=O)N1CCN(c2nc(=O)n(-c3c(C)ccnc3C(C)C)c3nc(-c4c(O)cccc4F)c(F)cc23)[C@@H](C)C1 [AMG 510, Sotorasib] |  |  | 50 | ~ 50% | no dose‐limiting toxicities | 0.091 | 0.136 | 0.272 | 0.272 | 0.227 | 2 | 3 | 6 | 6 | 5 | 2.98 | 110 | 4.40 | 58.1 |
